Counter-ions that a name gives are not always drawn. Where a SMILES comes first, the peptide text is derived from it. Bridges are numbered along the chain shown (N, C = ends). [ ]: non-standard residue; d: D form. The star is where a group is joined. X2 = CCC(C)C(N)C1=NC(C(=O)*)CS1; dOrn = NCCC[C@@H](N)C(=O)O
Each compound was assayed on T1, 1N4R p-tau (assay: p-tau aggregation modulator screen of 1280-compound library (ThS fluorescence net change over 16 h)). Settings: not given.
T1 construct: made in house; host or cells: E. coli (PIMAX system)
Assay type: biochemical
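Note: 30 µM compound with 6 µM p-tau over 16 h.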

| Compound | ThS net change |
| --- | --- |
| CC(N)C(O)c1ccccc1 (stereo not shown) [Phenylpropanolamine hydrochloride] | 395 |
| Hydralazine hydrochloride | 214 |
| Merbromin | 306 |
| COc1ccc([C@@H]2CC(=O)c3c(O)cc(O[C@@H]4O[C@H](CO[C@@H]5O[C@@H](C)[C@H](O)[C@@H](O)[C@H]5O)[C@@H](O)[C@H](O)[C@H]4O)cc3O2)cc1O [Hesperidin] | 425 |
| O=C(O)COCCN1CCN(C(c2ccccc2)c2ccc(Cl)cc2)CC1 (stereo not shown) [Cetirizine dihydrochloride] | 373 |
| Cc1onc(-c2c(Cl)cccc2Cl)c1C(=O)N[C@@H]1C(=O)N2[C@@H]1SC(C)(C)[C@@H]2C(=O)[O-].O.[Na+] [Dicloxacillin sodium salt hydrate] | 415 |
| CNCCC(Oc1ccccc1OC)c1ccccc1 (stereo not shown) [Nisoxetine hydrochloride] | 364 |
| CCCSc1ccc2nc(NC(=O)OC)[nH]c2c1 [Albendazole] | 324 |

Same assay, conditions: 1280-compound library screen; ThS fluorescence net change over 16 h

| Compound | ThS net change |
| --- | --- |
| O=C(O)Cc1sc(-c2ccccc2)nc1-c1ccc(Cl)cc1 [Fentiazac] | 382 |
| Cc1onc(-c2ccccc2)c1-c1ccc(S(N)(=O)=O)cc1 [Valdecoxib] | 393 |
| [H]/N=C(/N)N[C@H]1[C@H](O)[C@@H](O)[C@H](O[C@@H]2O[C@@H](C)[C@](O)(C=O)[C@H]2O[C@@H]2O[C@@H](CO)[C@H](O)[C@@H](O)[C@@H]2NC)[C@@H](N/C(N)=N\[H])[C@@H]1O [Streptomycin sulfate] | 397 |
| CC=CC(=O)N(CC)c1ccccc1C (mixture of isomers) [Crotamiton] | 386 |
| CCCCNc1cc(C(=O)O)cc(S(N)(=O)=O)c1Oc1ccccc1 [Bumetanide] | 408 |
| COc1cc([S+](C)[O-])ccc1-c1nc2ncccc2[nH]1 (stereo not shown) [Sulmazole] | 406 |
| CNCCc1ccccn1.CS(=O)(=O)O.CS(=O)(=O)O [Betahistine mesylate] | 378 |
| CC1=C(/C=C/C(C)=C/C=C/C(C)=C\C(=O)O)C(C)(C)CCC1 [Isotretinoin] | 389 |
| NC[C@H]1CC[C@H](C(=O)O)CC1 [Tranexamic acid] | 409 |
| CN(C)CCOc1ccc(/C(=C(/CCCl)c2ccccc2)c2ccccc2)cc1 [Toremifene] | 406 |
| CSc1nc2cc(Cl)c(Oc3cccc(Cl)c3Cl)cc2[nH]1 [Triclabendazole] | 382 |
| CC(C(=O)O)c1ccc(C(=O)c2ccccc2)s1 (stereo not shown) [Tiaprofenic acid] | 381 |
| COc1cc2ncnc(Nc3ccc(F)c(Cl)c3)c2cc1OCCCN1CCOCC1 [Gefitinib] | 395 |

Same assay, conditions: 1280-compound library screen; […]

| Compound | ThS net change |
| --- | --- |
| COc1ccc(C(CN(C)C)C2(O)CCCCC2)cc1 (stereo not shown) [Venlafaxine] | 404 |
| C[C@H]1O[C@@H](O[C@H]2[C@@H](O)C[C@H](O[C@H]3[C@@H](O)C[C@H](O[C@H]4CC[C@@]5(C)[C@H](CC[C@@H]6[C@@H]5C[C@@H](O)[C@]5(C)[C@@H](C7=CC(=O)OC7)CC[C@]65O)C4)O[C@@H]3C)O[C@@H]2C)C[C@H](O)[C@@H]1O [Digoxin] | 404 |
| CC(=O)O[C@H]1C[C@H](O[C@H]2[C@@H](O)C[C@H](O[C@H]3[C@@H](O)C[C@H](O[C@H]4CC[C@@]5(C)[C@H](CC[C@@H]6[C@@H]5C[C@@H](O)[C@]5(C)[C@@H](C7=CC(=O)OC7)CC[C@]65O)C4)O[C@@H]3C)O[C@@H]2C)O[C@H](C)[C@H]1O[C@@H]1O[C@H](CO)[C@@H](O)[C@H](O)[C@H]1O [Lanatoside C] | 411 |

Same assay, conditions: library screen, ThS fluorescence net change over 16 h with p-tau

| Compound | ThS net change |
| --- | --- |
| O=C1CN(/N=C/c2ccc([N+](=O)[O-])o2)C(=O)N1 [Nitrofurantoin] | 303 |
| O=c1cc(-c2ccc(O)c(O)c2)oc2cc(O)cc(O)c12 [Luteolin] | 296 |
| CCCCOc1cc(C(=O)NCCN(CC)CC)c2ccccc2n1 [Dibucaine] | 296 |
| CC1=C(CC(=O)O)c2cc(F)ccc2/C1=C\c1ccc([S+](C)[O-])cc1 (stereo not shown) [Sulindac] | 288 |
| C[C@]12C=CC(=O)C=C1CC[C@H]1[C@@H]3C[C@@H](O)[C@](O)(C(=O)CO)[C@@]3(C)C[C@H](O)[C@@]12F [Triamcinolone] | 259 |
| CCOc1ccc2ccccc2c1C(=O)N[C@@H]1C(=O)N2[C@@H]1SC(C)(C)[C@@H]2C(=O)O [Nafcillin sodium salt monohydrate] | 317 |

Same assay, conditions: p-tau aggregation modulator screen of 1280-compound library; ThS fluorescence net change

| Compound | ThS net change |
| --- | --- |
| [H]/N=C(/N)N/C(=N/[H])NCCc1ccccc1 [Phenformin hydrochloride] | 369 |
| Cc1cc(C(C)(C)C)c(O)c(C)c1CC1=NCCN1 [Oxymetazoline hydrochloride] | 339 |
| O=C1O[C@H]([C@@H](O)CO)C(O)=C1O [Ascorbic acid] | 361 |
| C[C@H](CCC(=O)O)[C@H]1CC[C@H]2[C@@H]3C(=O)C[C@@H]4CC(=O)CC[C@]4(C)[C@H]3CC(=O)[C@]12C [Dehydrocholic acid] | 331 |
| CC(C(=O)O)c1ccc(N2Cc3ccccc3C2=O)cc1 (stereo not shown) [Indoprofen] | 364 |
| O=C1c2ccccc2S(=O)(=O)N1CCCCN1CCN(c2ncccn2)CC1 [Ipsapirone] | 374 |
| CNC[C@H](O)[C@@H](O)[C@H](O)[C@H](O)CO [Meglumine] | 368 |
| C[N+]1(CCCCC[N+]2(C)CCCC2)CCCC1.O=C([O-])C(O)C(O)C(=O)O.O=C([O-])C(O)C(O)C(=O)O [Pentolinium bitartrate] | 369 |
| Cc1c(-c2ccccc2)oc2c(C(=O)OCCN3CCCCC3)cccc2c1=O [Flavoxate hydrochloride] | 359 |
| C[C@H](CS)C(=O)N1CCC[C@H]1C(=O)O [Captopril] | 370 |
| CC[C@@H](CO)NCCN[C@@H](CC)CO [Ethambutol dihydrochloride] | 344 |
| CC(C)(C)NC[C@@H](O)COc1cccc2c1CCCC2=O.Cl [(+) -Levobunolol hydrochloride] | 350 |
| Cc1ccccc1N1C(=O)c2cc(S(N)(=O)=O)c(Cl)cc2NC1C (stereo not shown) [Metolazone] | 364 |
| CC(C)[N+](C)(CCOC(=O)C1c2ccccc2Oc2ccccc21)C(C)C [Propantheline bromide] | 373 |
| CC(C)C(=O)Nc1ccc([N+](=O)[O-])c(C(F)(F)F)c1 [Flutamide] | 331 |
| CN(Cc1cnc2nc(N)nc(N)c2n1)c1ccc(C(=O)NC(CCC(=O)O)C(=O)O)cc1 (racemic) [Amethopterin (R,S)] | 373 |
| Nc1nc(=O)c2c([nH]1)NCC(CNc1ccc(C(=O)N[C@@H](CCC(=O)[O-])C(=O)[O-])cc1)N2C=O.[Ca+2] (stereo partly shown) [Folinic acid calcium salt] | 359 |
| c1ccc2c(CC3=NCCN3)cccc2c1 [Naphazoline hydrochloride] | 361 |
| C[N+]1(C)CCC(=C(c2ccccc2)c2ccccc2)CC1 [Diphemanil methylsulfate] | 350 |

Same assay, conditions: p-tau aggregation modulator screen of 1280-compound library; […]

| Compound | ThS net change |
| --- | --- |
| COc1cc2nc(N3CCN(C(=O)C4CCCO4)CC3)nc(N)c2cc1OC (stereo not shown) [Terazosin hydrochloride] | 366 |
| Cc1cc(C)nc([N-]S(=O)(=O)c2ccc(N)cc2)n1.[Na+] [Sulfamethazine sodium salt] | 366 |
| CCN(C(C)=O)c1cccc(-c2ccnc3c(C#N)cnn23)c1 [Zaleplon] | 368 |
| C1CCc2nnnn2CC1 [Pentylenetetrazole] | 365 |
| C[N+](C)(C)CCCCCC[N+](C)(C)C.O.O.[Br-].[Br-] [Hexamethonium dibromide dihydrate] | 342 |

Same assay, conditions: p-tau aggregation modulator screen of the compound library, ThS fluorescence net change

| Compound | ThS net change |
| --- | --- |
| O=S(=O)(O)CCS [Mesna] | 424 |
| O=C1CC2(CCCC2)CC(=O)N1CCCCN1CCN(c2ncccn2)CC1 [Buspirone hydrochloride] | 445 |
| CCC(C)C(N)C1=NC(C(=O)N[C@@H](CC(C)C)C(=O)N[C@H](CCC(=O)O)C(=O)N[C@H](C(=O)N[C@H]2CCCCNC(=O)[C@H](CC(N)=O)NC(=O)[C@@H](CC(=O)O)NC(=O)[C@H](Cc3cnc[nH]3)NC(=O)[C@@H](Cc3ccccc3)NC(=O)[C@H]([C@@H](C)CC)NC(=O)[C@@H](CCCN)NC2=O)[C@@H](C)CC)CS1 (stereo partly shown) [Bacitracin] (X2-L[dE]IK[dOrn]I[dF]H[dD]N; lactam 4-C) | 479 |
| C#C[C@]1(O)CC[C@H]2[C@@H]3CCc4cc(O)ccc4[C@H]3CC[C@@]21C [Ethinylestradiol] | 451 |
| CN(CCOc1ccc(CC2SC(=O)NC2=O)cc1)c1ccccn1.Cl (stereo not shown) [Rosiglitazone Hydrochloride] | 476 |
| CC(=O)N[C@@H](CS)C(=O)O [Acetylcysteine] | 423 |
| Nc1ccc(S(=O)(=O)Nc2ccc(Cl)nn2)cc1 [Sulfachloropyridazine] | 413 |
| COc1ccccc1N1CCN(CC(O)COc2cccc3ccccc23)CC1.Cl.Cl (stereo not shown) [Naftopidil dihydrochloride] | 453 |
| CC1CS(=O)(=O)CCN1/N=C/c1ccc([N+](=O)[O-])o1 (stereo not shown) [Nifurtimox] | 588 |
| CC(C)c1c(C(=O)Nc2ccccc2)c(-c2ccccc2)c(-c2ccc(F)cc2)n1CC[C@@H](O)C[C@@H](O)CC(=O)O [Atorvastatin] | 488 |
| COc1ccc(-c2ccc3cc(C(=O)O)ccc3c2)cc1C12CC3CC(CC(C3)C1)C2 [Adapalene] | 477 |
| CCc1oc2ccccc2c1C(=O)c1cc(Br)c(O)c(Br)c1 [Benzbromarone] | 498 |
| Cc1onc(-c2c(F)cccc2Cl)c1C(=O)N[C@@H]1C(=O)N2[C@@H]1SC(C)(C)[C@@H]2C(=O)O [Flucloxacillin sodium] | 443 |
| Cc1c(C)c2c(c(C)c1O)CCC(C)(COc1ccc(CC3SC(=O)NC3=O)cc1)O2 (stereo not shown) [Troglitazone] | 451 |
| CC(=O)Nc1nnc(S(N)(=O)=O)s1 [Acetazolamide] | 429 |
| CCOC(=O)Nc1ccc2c(c1)N(C(=O)CCN1CCOCC1)c1ccccc1S2 [Moricizine hydrochloride] | 473 |

From article PMC7539012, “Hyperphosphorylated tau aggregation and cytotoxicity modulators screen identified prescription drugs linked to Alzheimer's disease and cognitive functions” (Scientific Reports, 2020)
